The test system of data set [1] is SK-OV-3 (Ovary). Description: MTT antiproliferative assay, 72 h. It is filed as cell-based. The note with it: read-out: IC50 values SK-OV-3 (Ovary), 72 h exposure, mean ± SDM, n = 3. For orientation: Tetrazolium assays rely on reduction of a dye to a coloured formazan, in cell work by metabolically active cells.
Data set [2] has as its system MCF-7 (Breast). The data set is described as follows: MTT antiproliferative assay, 72 h. It is filed as cell-based. The note with it: read-out: IC50 values MCF-7 (Breast), 72 h exposure, mean ± SDM, n = 3.
For data set [3], the system named is A2780 (Ovary). Description: MTT antiproliferative assay, 72 h. It counts as cell-based. The following applies: read-out: IC50 values A2780 (Ovary), 72 h exposure, mean ± SDM, n = 3.
Data set [4] has as its system MDA-MB-231 (Breast). The data set is described as follows: MTT antiproliferative assay, 72 h. It is filed as cell-based. The following applies: read-out: IC50 values MDA-MB-231 (Breast), 72 h exposure, mean ± SDM, n = 3.
Data set [5] has as its system HT-29 (Colon). Description: MTT antiproliferative assay, 72 h. It is filed as cell-based. The note with it: read-out: IC50 values HT-29 (Colon), 72 h exposure, mean ± SDM, n = 3.
Data set [6] relates to Caco-2 (Colon). The data set is described as follows: MTT antiproliferative assay, 72 h. It counts as cell-based. The following applies: read-out: IC50 values Caco-2 (Colon), 72 h exposure, mean ± SDM, n = 3.
Data set [7] concerns A2780 cells. Description: Cell cycle analysis by flow cytometry. The following applies: 24 h, lower of two concentrations close to 24-h IC50. It counts as cell-based. (In general: Flow cytometry measures light scatter and fluorescence of single cells or particles in a stream.)
For data set [8] the following is noted: unsubstituted (lacking the N4 phenyl) compound; cited from earlier work.

The IC50 is the concentration at which inhibition is half-maximal. As for `CC(=O)N(O)CCCCCNC(=O)CCC(=O)N(O)CCCCCNC(=O)CCC(=O)N(O)CCCCCN` [DFO], the IC50 in data set [1] was determined as 9.5 ± 0.5 µM; in data set [2] it was 22.5 ± 0.3 µM; in data set [3] it was 1900 ± 100 nM; in data set [4], 4.58 ± 0.03 µM; in data set [5], 2.3 ± 0.2 µM; in data set [6], 3.9 ± 0.5 µM. The “cell cycle distribution at the lower concentration” value in data set [7] is given as “a larger fraction of cells was able to proceed to the S phase but remained unable to reach the G2 phase”.

For the compound `Oc1ccccc1C=NNC(=S)Nc1ccccc1` [STC1], the IC50 in data set [1] came out at 2.3 ± 0.2 µM; in data set [2] it was 1.74 ± 0.04 µM; in data set [3] it was 1900 ± 100 nM; in data set [4] it was 4.8 ± 0.2 µM; in data set [5] it was 9.5 ± 0.5 µM; in data set [6] it was 7.3 ± 0.8 µM.

As usually defined, the pKa is the negative logarithm of the acid dissociation constant. Regarding `NC(=S)N/N=C/c1ccccc1O` [salicylaldehyde thiosemicarbazone], in data set [8], the pKa was 8.8.

The values are drawn from paper PMC10188280 (Inorganic chemistry, 2022).
